Tests used:
PRMT5 [1] = target: T1, PRMT5 (Homo sapiens, UniProt O14744); assay: PRMT5 inhibition assay with SAM as cofactor; assay type: biochemical; conditions: against PRMT5 in the presence of SAM as cofactor
T1 construct: purchased Viva (custom protein)
From the text: (§1) The Ki values can be calculated from the IC50 values as described in the Examples section. As detailed in the Examples section, for the assay performed in the presence of SAM, IC50=Ki×1.5 (Ki=IC50/1.5). For the assay performed in the presence of MTA, IC50=Ki×13.5 (Ki=IC50/13.5). Column 6 indicates the ratio between the Ki of compounds in the presence of SAM and the Ki of compounds in the presence of MTA

PRMT5 [2] = target: T1, PRMT5; assay: PRMT5 inhibition assay with no cofactor; assay type: biochemical; conditions: against PRMT5 with no cofactor; read-out: No Co-factor IC50
[3] = system: HAP1 MTAP-deleted cell line; assay: SDMA in-cell western assay, HAP1 MTAP-deleted; assay type: cell-based; conditions: for IC50: Homo sapiens, HAP1 MTAP-deleted (MTAP-null) cell line; for MTAP Intact/Deleted Ratio: IC50 ratio HAP1 MTAP-intact / HAP1 MTAP-deleted, >=3 fold considered MTAP-selective
Experimental: (§2) Table 1 also indicates IC50 values in an MTAP-isogenic cell line pair for exemplary compounds in an SDMA in-cell western assay (columns 7-8). HAP1 MTAP-intact is a cell line in which endogenous levels of MTAP are expressed, and HAP1 MTAP-deleted is an MTAP-null cell line. For Table 1, “a*” and “aa*” indicates an IC50 of <1 μM, “b*” and “bb*” indicates an IC50 equal to or greater than 1 μM but less than 10 μM, and “c*” and “cc*” indicates an IC50 of greater than or equal to 10 μM in the HAP1 MTAP-intact and the HAP1 MTAP-deleted assays, respectively. In column 9, “A*” indicates an IC50 ratio greater than or equal to 10 fold between the IC50 in the HAP1 MTAP-intact cell line and the HAP1 MTAP-deleted cell line; “B*” indicates an IC50 ratio greater than or equal to 3 fold but lower than 10 fold between the IC50 in the HAP1 MTAP-intact cell line and the HAP1 MTAP-deleted cell line; “C*” indicates an IC50 ratio of less than 3 fold between the IC50 in the HAP1 MTAP-intact cell line and the HAP1 MTAP-deleted cell line. Compounds with a ratio in the SDMA in-cell western assay of equal to or greater than 3 fold are considered MTAP-selective.

[4] = system: HAP1 MTAP-intact cell line; assay: SDMA in-cell western assay, HAP1 MTAP-intact; assay type: cell-based; conditions: Homo sapiens
Experimental: as §2

PRMT5 [5] = target: T1, PRMT5; assay: PRMT5 inhibition assay with MTA as cofactor; assay type: biochemical; conditions: for IC50: against PRMT5 with MTA as cofactor; for SAM/MTA Ratio: ratio of Ki in the presence of SAM to Ki in the presence of MTA, Ki=IC50/1.5 (SAM), Ki=IC50/13.5 (MTA)
From the text: as §1

T1 sequence (O14744 whole entry): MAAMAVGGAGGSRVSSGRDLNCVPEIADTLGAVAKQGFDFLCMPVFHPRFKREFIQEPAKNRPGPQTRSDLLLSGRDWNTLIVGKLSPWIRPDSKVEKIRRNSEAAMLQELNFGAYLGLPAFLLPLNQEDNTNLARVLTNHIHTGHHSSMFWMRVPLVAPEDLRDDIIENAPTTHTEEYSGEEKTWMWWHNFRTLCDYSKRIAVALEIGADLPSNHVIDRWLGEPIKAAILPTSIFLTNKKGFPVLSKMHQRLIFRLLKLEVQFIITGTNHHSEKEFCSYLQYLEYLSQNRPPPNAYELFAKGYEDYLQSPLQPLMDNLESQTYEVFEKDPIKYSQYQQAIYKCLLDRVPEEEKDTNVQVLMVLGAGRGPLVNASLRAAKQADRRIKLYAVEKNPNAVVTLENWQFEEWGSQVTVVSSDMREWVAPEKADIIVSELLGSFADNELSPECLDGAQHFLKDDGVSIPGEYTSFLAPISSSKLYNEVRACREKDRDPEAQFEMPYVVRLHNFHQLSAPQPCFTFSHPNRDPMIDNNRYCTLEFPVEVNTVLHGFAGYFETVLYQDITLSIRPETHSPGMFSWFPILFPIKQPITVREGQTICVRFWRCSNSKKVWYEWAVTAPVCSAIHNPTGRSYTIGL
T1 sequence (Q9BQA1 whole entry partner): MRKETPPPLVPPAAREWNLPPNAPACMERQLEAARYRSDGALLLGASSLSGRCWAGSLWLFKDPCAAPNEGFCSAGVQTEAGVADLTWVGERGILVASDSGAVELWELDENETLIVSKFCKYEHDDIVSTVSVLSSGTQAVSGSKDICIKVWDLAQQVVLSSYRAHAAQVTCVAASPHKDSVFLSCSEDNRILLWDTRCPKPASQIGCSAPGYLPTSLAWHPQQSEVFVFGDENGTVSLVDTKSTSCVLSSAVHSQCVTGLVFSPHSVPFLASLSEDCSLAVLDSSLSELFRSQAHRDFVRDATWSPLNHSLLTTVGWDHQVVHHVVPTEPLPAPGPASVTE

| SMILES | IC50 (PRMT5 [1]) | IC50 (PRMT5 [2]) | IC50 [3] | IC50 [4] | IC50 (PRMT5 [5]) | MTAP Intact/Deleted Ratio [3] | SAM/MTA Ratio (PRMT5 [5]) |
| --- | --- | --- | --- | --- | --- | --- | --- |
| COc1ccc(C(=O)N2CCc3cc(C(=O)NC[C@@H](O)[C@@H]4Cc5ccc(OCc6ocnc6C)cc5CN4)ccc3C2)cc1 [Compound 21, N—((R)-2-hydroxy-2-((S)-7-((4-methyloxazol-5-yl)methoxy)-1,2,3,4-tetrahydroisoquinolin-3-yl)ethyl)-2-(4-methoxybenzoyl)-1,2,3,4-tetrahydroisoquinoline-6-carboxamide] | 50 to 500 nM | 50 to 500 nM | < 1000 nM | 1000 to 10000 nM | < 50 nM | A* (an IC50 ratio greater than or equal to 10 fold between the IC50 in the HAP1 MTAP-intact cell line and the HAP1 MTAP-deleted cell line) | A (a Ki ratio greater than or equal to 10 fold between the Ki in the presence of SAM and the Ki in the presence of MTA) |
| CC(=O)N1CC(Nc2cc(C(=O)NC[C@@H](O)[C@@H]3Cc4ccc(OCc5ocnc5C)cc4CN3)nc(N3CC4CC(C4)C3)n2)C1 [Compound 51, 6-[(1-acetylazetidin-3-yl)amino]-2-(3-azabicyclo[3.1.1]heptan-3-yl)-N-[(2R)-2-hydroxy-2-[(3S)-7-[(4-methyloxazol-5-yl)methoxy]-1,2,3,4-tetrahydroisoquinolin-3-yl]ethyl]pyrimidine-4-carboxamide] | 50 to 500 nM | 50 to 500 nM | < 1000 nM | 1000 to 10000 nM | < 50 nM | A* (an IC50 ratio greater than or equal to 10 fold between the IC50 in the HAP1 MTAP-intact cell line and the HAP1 MTAP-deleted cell line) | A (a Ki ratio greater than or equal to 10 fold between the Ki in the presence of SAM and the Ki in the presence of MTA) |
| O=C(NC[C@@H](O)[C@@H]1Cc2ccc(OCc3cnco3)cc2CN1)c1ccc(C(=O)N2[C@@H]3CCC[C@H]2COC3)cc1 [Compound 7, 4-((1R,5S)-3-oxa-9-azabicyclo[3.3.1]nonane-9-carbonyl)-N—((R)-2-hydroxy-2-((S)-7-(oxazol-5-ylmethoxy)-1,2,3,4-tetrahydroisoquinolin-3-yl)ethyl)benzamide] | 50 to 500 nM | 500 to 5000 nM | 1000 to 10000 nM | ≥ 10000 nM | 50 to 500 nM | B* (an IC50 ratio greater than or equal to 3 fold but lower than 10 fold between the IC50 in the HAP1 MTAP-intact cell line and the HAP1 MTAP-deleted cell line) | A (a Ki ratio greater than or equal to 10 fold between the Ki in the presence of SAM and the Ki in the presence of MTA) |

Second part, led by results:

| IC50 (PRMT5 [1]) | IC50 (PRMT5 [2]) | IC50 [3] | IC50 [4] | IC50 (PRMT5 [5]) | SMILES | MTAP Intact/Deleted Ratio [3] | SAM/MTA Ratio (PRMT5 [5]) |
| --- | --- | --- | --- | --- | --- | --- | --- |
| 50 to 500 nM | 50 to 500 nM | < 1000 nM | 1000 to 10000 nM | < 50 nM | CCC(=O)N1CCN(c2cc(C(=O)NC[C@@H](O)[C@@H]3Cc4ccc(OCc5ocnc5C)cc4CN3)cc(NC3CCC3)n2)CC1 [Compound 39, 2-(cyclobutylamino)-N—((R)-2-hydroxy-2-((S)-7-((4-methyloxazol-5-yl)methoxy)-1,2,3,4-tetrahydroisoquinolin-3-yl)ethyl)-6-(4-propionylpiperazin-1-yl)isonicotinamide] | A* (an IC50 ratio greater than or equal to 10 fold between the IC50 in the HAP1 MTAP-intact cell line and the HAP1 MTAP-deleted cell line) | A (a Ki ratio greater than or equal to 10 fold between the Ki in the presence of SAM and the Ki in the presence of MTA) |
| 50 to 500 nM | 50 to 500 nM | < 1000 nM | 1000 to 10000 nM | < 50 nM | Cc1ncoc1COc1ccc2c(c1)CN[C@H]([C@H](O)CNC(=O)c1cc(NC3CC4(CCC4)C3)ncn1)C2 [Compound 43, N-[(2R)-2-hydroxy-2-[(3S)-7-[(4-methyloxazol-5-yl)methoxy]-1,2,3,4-tetrahydroisoquinolin-3-yl]ethyl]-6-(spiro[3.3]heptan-2-ylamino)pyrimidine-4-carboxamide] | A* (an IC50 ratio greater than or equal to 10 fold between the IC50 in the HAP1 MTAP-intact cell line and the HAP1 MTAP-deleted cell line) | A (a Ki ratio greater than or equal to 10 fold between the Ki in the presence of SAM and the Ki in the presence of MTA) |
